Reference: ChEMBL document CHEMBL2311326, “Synthesis and evaluation of novel sulfenamides as novel anti Methicillin-resistant Staphylococcus aureus agents” (2013)
Converted amounts (≈) assume the structure as drawn.

What was measured:
Format in all cases: functional
Pseudomonas aeruginosa = test: Antimicrobial activity against Pseudomonas aeruginosa PAO1
Staphylococcus aureus [1] = test: Antimicrobial activity against methicillin-resistant Staphylococcus aureus
Bacillus subtilis = test: Antimicrobial activity against Bacillus subtilis ATCC 6633
Staphylococcus aureus [2] = test: Antimicrobial activity against methicillin-sensitive Staphylococcus aureus isolate 309-1
Staphylococcus aureus [3] = test: Antimicrobial activity against Staphylococcus aureus ATCC 6538
Staphylococcus aureus [4] = test: Antimicrobial activity against methicillin-resistant Staphylococcus aureus isolate 309-8
Staphylococcus aureus [5] = test: Antimicrobial activity against methicillin-resistant Staphylococcus aureus isolate 309-7
Staphylococcus aureus [6] = test: Antimicrobial activity against methicillin-resistant Staphylococcus aureus isolate 6-42
Staphylococcus aureus [7] = test: Antimicrobial activity against methicillin-resistant Staphylococcus aureus isolate 309-4
Staphylococcus aureus [8] = test: Antimicrobial activity against methicillin-resistant Staphylococcus aureus isolate Chaoyang

In the case of COC(=O)CC[C@H](NSc1ccc([N+](=O)[O-])cc1[N+](=O)[O-])C(=O)OC, the MIC (Pseudomonas aeruginosa) is reported as over 100 µg/mL, the MIC (Staphylococcus aureus [1]) is reported as over 100 µg/mL and the MIC (Bacillus subtilis) is reported as 50 µg/mL (≈ 134 µM).
Compound CCOC(=O)CC[C@H](NSc1ccc([N+](=O)[O-])cc1[N+](=O)[O-])C(=O)OCC has an MIC (Pseudomonas aeruginosa) of over 100 µg/mL, an MIC (Staphylococcus aureus [1]) of over 100 µg/mL and an MIC (Bacillus subtilis) of 50 µg/mL (≈ 125 µM).
For CC(C)OC(=O)CC[C@H](NSc1ccc([N+](=O)[O-])cc1[N+](=O)[O-])C(=O)OC(C)C, the MIC (Pseudomonas aeruginosa) was over 100 µg/mL, the MIC (Staphylococcus aureus [1]) was over 100 µg/mL and the MIC (Bacillus subtilis) was 25 µg/mL (≈ 58.2 µM).
O=C1C(=O)N(Sc2ccccc2[N+](=O)[O-])c2ccccc21 showed an MIC (Pseudomonas aeruginosa) of over 100 µg/mL, an MIC (Staphylococcus aureus [1]) of 25 µg/mL (≈ 83.3 µM) and an MIC (Bacillus subtilis) of over 100 µg/mL.
With O=C1C(=O)N(Sc2ccccc2)c2ccccc21 the MIC (Pseudomonas aeruginosa) was over 100 µg/mL, the MIC (Staphylococcus aureus [1]) was 50 µg/mL (≈ 196 µM) and the MIC (Bacillus subtilis) was 25 µg/mL (≈ 97.9 µM).
With Cc1ccc(SN2C(=O)C(=O)c3ccccc32)cc1 the MIC (Pseudomonas aeruginosa) was over 100 µg/mL, the MIC (Staphylococcus aureus [1]) was over 100 µg/mL and the MIC (Bacillus subtilis) was over 100 µg/mL.
With COC(=O)c1ccccc1SN1C(=O)C(=O)c2ccccc21 the MIC (Pseudomonas aeruginosa) was over 100 µg/mL, the MIC (Staphylococcus aureus [1]) was 50 µg/mL (≈ 160 µM) and the MIC (Bacillus subtilis) was over 100 µg/mL.
CCOC(=O)c1ccccc1SN1C(=O)C(=O)c2ccccc21 gave an MIC (Pseudomonas aeruginosa) of over 100 µg/mL, an MIC (Staphylococcus aureus [1]) of 12.5 µg/mL (≈ 38.2 µM) and an MIC (Bacillus subtilis) of over 100 µg/mL.
With O=C1C(=O)N(Sc2ccc([N+](=O)[O-])cc2[N+](=O)[O-])c2ccccc21 the MIC (Pseudomonas aeruginosa) was over 100 µg/mL, the MIC (Staphylococcus aureus [1]) was over 100 µg/mL and the MIC (Bacillus subtilis) was over 100 µg/mL.
O=C1C(=O)N(Sc2ccccc2[N+](=O)[O-])c2c(Cl)cccc21 was tested, and the MBC (Staphylococcus aureus [2]) was over 100 µg/mL, the MIC (Staphylococcus aureus [2]) was 12.5 µg/mL (≈ 37.3 µM) and the MIC (Pseudomonas aeruginosa) was over 100 µg/mL. For the same compound, the MBC (Staphylococcus aureus [3]) was over 100 µg/mL, the MIC (Staphylococcus aureus [3]) was 12.5 µg/mL (≈ 37.3 µM) and the MIC (Staphylococcus aureus [1]) was 6.25 µg/mL (≈ 18.7 µM). The MIC (Bacillus subtilis) was over 100 µg/mL, the MBC (Staphylococcus aureus [4]) was over 100 µg/mL and the MIC (Staphylococcus aureus [4]) was 12.5 µg/mL (≈ 37.3 µM). The MBC (Staphylococcus aureus [5]) was over 100 µg/mL, the MIC (Staphylococcus aureus [5]) was 6.25 µg/mL (≈ 18.7 µM) and the MBC (Staphylococcus aureus [6]) was over 100 µg/mL. The MIC (Staphylococcus aureus [6]) was 6.25 µg/mL (≈ 18.7 µM), the MBC (Staphylococcus aureus [7]) was over 100 µg/mL and the MIC (Staphylococcus aureus [7]) was 12.5 µg/mL (≈ 37.3 µM). The MBC (Staphylococcus aureus [8]) was over 100 µg/mL and the MIC (Staphylococcus aureus [8]) was 6.25 µg/mL (≈ 18.7 µM).
Compound COC(=O)c1ccccc1SN1C(=O)C(=O)c2cccc(Cl)c21 has an MIC (Pseudomonas aeruginosa) of over 100 µg/mL, an MIC (Staphylococcus aureus [1]) of 12.5 µg/mL (≈ 35.9 µM) and an MIC (Bacillus subtilis) of over 100 µg/mL.
CCOC(=O)c1ccccc1SN1C(=O)C(=O)c2cccc(Cl)c21 showed an MIC (Pseudomonas aeruginosa) of over 100 µg/mL, an MIC (Staphylococcus aureus [1]) of over 100 µg/mL and an MIC (Bacillus subtilis) of over 100 µg/mL.
With O=C1C(=O)N(Sc2ccccc2[N+](=O)[O-])c2c(Br)cccc21 the MIC (Pseudomonas aeruginosa) was over 100 µg/mL, the MIC (Staphylococcus aureus [1]) was 12.5 µg/mL (≈ 33 µM) and the MIC (Bacillus subtilis) was over 100 µg/mL.
Work on CCOC(=O)c1ccccc1SN1C(=O)C(=O)c2cccc(Br)c21 yielded an MIC (Pseudomonas aeruginosa) of over 100 µg/mL, an MIC (Staphylococcus aureus [1]) of over 100 µg/mL and an MIC (Bacillus subtilis) of over 100 µg/mL.
O=C1C(=O)N(Sc2ccccc2[N+](=O)[O-])c2c(Br)cc(Br)cc21 showed an MIC (Pseudomonas aeruginosa) of over 100 µg/mL, an MIC (Staphylococcus aureus [1]) of 25 µg/mL (≈ 54.6 µM) and an MIC (Bacillus subtilis) of over 100 µg/mL.
CCOC(=O)[C@@H](N)Cc1c[nH]c2ccccc12 gave an MBC (Staphylococcus aureus [2]) of over 100 µg/mL, an MIC (Staphylococcus aureus [2]) of over 100 µg/mL and an MBC (Staphylococcus aureus [3]) of over 100 µg/mL. The MIC (Staphylococcus aureus [3]) was over 100 µg/mL, the MBC (Staphylococcus aureus [4]) was over 100 µg/mL and the MIC (Staphylococcus aureus [4]) was over 100 µg/mL. The MBC (Staphylococcus aureus [5]) was over 100 µg/mL, the MIC (Staphylococcus aureus [5]) was over 100 µg/mL and the MBC (Staphylococcus aureus [6]) was over 100 µg/mL. The MIC (Staphylococcus aureus [6]) was over 100 µg/mL, the MBC (Staphylococcus aureus [7]) was over 100 µg/mL and the MIC (Staphylococcus aureus [7]) was over 100 µg/mL. The MBC (Staphylococcus aureus [8]) was over 100 µg/mL and the MIC (Staphylococcus aureus [8]) was over 100 µg/mL.
CN[C@H](CC(C)C)C(=O)N[C@H]1C(=O)N[C@@H](CC(N)=O)C(=O)N[C@H]2C(=O)N[C@H]3C(=O)N[C@H](C(=O)N[C@H](C(=O)O)c4cc(O)cc(O)c4-c4cc3ccc4O)[C@H](O)c3ccc(c(Cl)c3)Oc3cc2cc(c3O[C@@H]2O[C@H](CO)[C@@H](O)[C@H](O)[C@H]2O[C@H]2C[C@](C)(N)[C@H](O)[C@H](C)O2)Oc2ccc(cc2Cl)[C@H]1O [VANCOMYCIN] showed an MBC (Staphylococcus aureus [2]) of 1 µg/mL (≈ 0.69 µM), an MIC (Pseudomonas aeruginosa) of over 100 µg/mL and an MBC (Staphylococcus aureus [3]) of 2 µg/mL (≈ 1.38 µM). The MIC (Bacillus subtilis) was 0.5 µg/mL (≈ 0.345 µM), the MBC (Staphylococcus aureus [4]) was 1 µg/mL (≈ 0.69 µM) and the MBC (Staphylococcus aureus [5]) was 1 µg/mL (≈ 0.69 µM). The MBC (Staphylococcus aureus [6]) was 1 µg/mL (≈ 0.69 µM), the MBC (Staphylococcus aureus [7]) was 1 µg/mL (≈ 0.69 µM) and the MBC (Staphylococcus aureus [8]) was 1 µg/mL (≈ 0.69 µM).
